We go through 28 compounds from patent US10072003B2, “Tetrahydronaphthyridine derivatives as mGluR2-negative allosteric modulators, compositions, and their use” (Merck Sharp & Dohme Corp., priority 2014, dated 2018).

This assay addresses recombinant human mGluR2 (Homo sapiens (Human), UniProt Q14416). The assay is described as follows: FLIPR Ca2+ mobilization antagonist assay in CHO dhfr- cells expressing human mGluR2 and Gα16. It is filed as cell-based. The note with it: antagonist response after addition of 2,500 nM glutamate, Fluo-4 AM, FLIPR384. As for the experimental part:
Antagonist constants are determined as follows. The compounds of the invention were tested in a fluorescence laser imaging plate reader based assay. This assay is a common functional assay to monitor Ca2+ mobilization in whole cells expressing recombinant receptor coupled with a promiscuous G-protein. CHO dhfr-cells stably expressing recombinant human mGluR2 and Gα16 loaded with Fluo-4 AM (Invitrogen, Carlsbad Calif.) were treated with various concentrations of antagonists of compounds and the Ca2+ response was monitored on a FLIPR384 (Molecular Devices, Sunnydale Calif.) for agonist activity. Then 2,500 nM glutamate was added and the antagonist response was monitored. The maximum calcium response at each concentration of compound for agonist or antagonist were plotted as dose responses and the curves were fitted with a four parameter logistic equation giving IC50 and Hill coefficient using the iterative non linear curve fitting software ADA (Merck & Co). Data in the following table represent activities in the antagonist assay.
Background: Calcium assays in cells follow changes in intracellular calcium, usually with a dye or a luminescent sensor.

recombinant human mGluR2, sequence (Q14416 19-872): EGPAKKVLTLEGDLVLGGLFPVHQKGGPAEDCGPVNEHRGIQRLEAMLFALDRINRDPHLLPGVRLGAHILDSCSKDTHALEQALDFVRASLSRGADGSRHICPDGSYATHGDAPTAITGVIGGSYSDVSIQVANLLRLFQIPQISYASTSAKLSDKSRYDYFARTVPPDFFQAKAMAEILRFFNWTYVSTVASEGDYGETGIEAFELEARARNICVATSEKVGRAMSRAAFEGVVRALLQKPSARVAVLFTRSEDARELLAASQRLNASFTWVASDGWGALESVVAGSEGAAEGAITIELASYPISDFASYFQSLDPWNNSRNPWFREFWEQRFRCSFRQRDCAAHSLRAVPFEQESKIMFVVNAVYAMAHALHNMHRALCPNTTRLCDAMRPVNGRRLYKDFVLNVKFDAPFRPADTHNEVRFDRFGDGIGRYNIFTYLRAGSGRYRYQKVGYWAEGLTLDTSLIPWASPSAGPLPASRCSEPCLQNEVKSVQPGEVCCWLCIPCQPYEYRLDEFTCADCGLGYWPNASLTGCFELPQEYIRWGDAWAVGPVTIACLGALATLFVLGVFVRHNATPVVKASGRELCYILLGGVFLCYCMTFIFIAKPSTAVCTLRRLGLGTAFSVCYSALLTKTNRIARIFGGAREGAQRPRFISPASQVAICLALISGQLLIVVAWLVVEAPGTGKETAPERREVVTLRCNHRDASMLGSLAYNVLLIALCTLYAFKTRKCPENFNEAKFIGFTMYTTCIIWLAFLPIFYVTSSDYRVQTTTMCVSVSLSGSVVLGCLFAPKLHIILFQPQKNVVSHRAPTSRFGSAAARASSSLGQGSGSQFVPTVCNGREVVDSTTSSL

Turning to `NC(=O)c1cc(-c2ccc(Cl)cn2)c2c(n1)CN(Cc1ccnc(C(F)(F)F)c1)CC2` [Example 6-1, 4-(5-chloropyridin-2-yl)-7-((2-(trifluoromethyl)pyridin-4-yl)methyl)-5,6,7,8-tetrahydro-1,7-naphthyridine-2-carboxamide], the IC50 (in general, the concentration that inhibits the measured activity by half) turned out to be 0.0117 µM.

In the case of `Cn1cncc1CN1CCc2c(-c3ccc(Cl)cc3F)cc(C(N)=O)nc2C1` [Example 1-16, 4-(4-chloro-2-fluorophenyl)-7-[(1-methyl-1H-imidazol-5-yl)methyl]-5,6,7,8-tetrahydro-1,7-naphthyridine-2-carboxamide], the IC50 was 0.0141 µM.

For `Cc1ccc(-c2cc(C(N)=O)nc3c2CCN(Cc2ccnn2C(C)C)C3)c(F)c1` [Example 1-12, 4-(2-fluoro-4-methylphenyl)-7-{[1-(1-methylethyl)-1H-pyrazol-5-yl]methyl}-5,6,7,8-tetrahydro-1,7-naphthyridine-2-carboxamide], the IC50 is 0.0099 µM.

On to `COc1cc(CN2CCc3c(-c4ccc(F)cc4F)cc(C(N)=O)nc3C2)ccn1` [Example 13-1, 4-(2,4-difluorophenyl)-7-((2-methoxypyridin-4-yl)methyl)-5,6,7,8-tetrahydro-1,7-naphthyridine-2-carboxamide], for which the IC50 was 0.0078 µM.

`NC(=O)c1cc(-c2cc(C3CC3)ns2)c2c(n1)CN(Cc1ccnc(OC(F)F)c1)CC2` [Example 2-27, 4-(3-cyclopropylisothiazol-5-yl)-7-{[2-(difluoromethoxy)pyridin-4-yl]methyl}-5,6,7,8-tetrahydro-1,7-naphthyridine-2-carboxamide]: the IC50 amounted to 0.023 µM.

With `CC1(C)CC(CN2CCc3c(-c4ccc(Cl)cc4F)cc(C(N)=O)nc3C2)CCO1` (single isomer, unassigned) [Example 1-5A, (R) or (S)-4-(4-chloro-2-fluorophenyl)-7-((2,2-dimethyltetrahydro-2H-pyran-4-yl)methyl)-5,6,7,8-tetrahydro-1,7-naphthyridine-2-carboxamide], the IC50 was determined as 0.0056 µM.

As to `NC(=O)c1cc(-c2c(F)cccc2Cl)c2c(n1)CN(Cc1ccnc(C(F)(F)F)n1)CC2` [Example 11-7, 4-(2-chloro-6-fluorophenyl)-7-{[2-(trifluoromethyl)pyrimidin-4-yl]methyl}-5,6,7,8-tetrahydro-1,7-naphthyridine-2-carboxamide], the half-maximal inhibitory concentration (IC50) stood at 0.0452 µM.

As to `CC(c1ccnc(C(F)(F)F)c1)N1CCc2c(-c3cnn(C(F)F)c3)cc(C(N)=O)nc2C1` (single isomer, unassigned) [Example 7-3A, (S) or (R)-4-[1-(difluoromethyl)-1H-pyrazol-4-yl]-7-{(1R)-1-[2-(trifluoromethyl)pyridin-4-yl]ethyl}-5,6,7,8-tetrahydro-1,7-naphthyridine-2-carboxamide], the IC50 was determined as 0.0293 µM.

On to `NC(=O)c1cc(N2CCCC(F)C2)c2c(n1)CN(Cc1ccnc(C(F)(F)F)c1)CC2` (single isomer, unassigned) [Example 5-6B, (R) or (S)-4-(3-fluoropiperidin-1-yl)-7-((2-(trifluoromethyl)pyridin-4-yl)methyl)-5,6,7,8-tetrahydro-1,7-naphthyridine-2-carboxamide], for which the IC50 was 0.0173 µM.

Regarding `Cc1nonc1CN1CCc2c(-c3ccc(F)cc3F)cc(C(N)=O)nc2C1` [Example 2-7, 4-(2,4-difluorophenyl)-7-[(4-methyl-1,2,5-oxadiazol-3-yl)methyl]-5,6,7,8-tetrahydro-1,7-naphthyridine-2-carboxamide], the IC50 amounted to 0.0076 µM.

`N#Cc1cnn(-c2cc(C(N)=O)nc3c2CCN(Cc2ccnc(C(F)(F)F)c2)C3)c1` [Example 2-25, 4-(4-cyano-1H-pyrazol-1-yl)-7-{[2-(trifluoromethyl)pyridin-4-yl]methyl}-5,6,7,8-tetrahydro-1,7-naphthyridine-2-carboxamide]: the IC50 turned out to be 0.0409 µM.

As to `CC1c2nc(C(N)=O)cc(-c3ccc(F)cc3F)c2CCN1CC1CCOC(C)(C)C1` (single isomer, unassigned) [Example 1-18], the IC50 was determined as 0.0123 µM.

Consider `NC(=O)c1cc(-n2ccc(C(F)(F)F)n2)c2c(n1)CN(Cc1ccnc(C(F)(F)F)c1)CC2` [Example 2-19, 4-[3-(trifluoromethyl)-1H-pyrazol-1-yl]-7-{[2-(trifluoromethyl)pyridin-4-yl]methyl}-5,6,7,8-tetrahydro-1,7-naphthyridine-2-carboxamide], for which the IC50 was 0.0616 µM.

As to `CC(C)n1nccc1CN1CCc2c(-c3ccc(F)cc3F)cc(C(N)=O)nc2C1` [Example 1-9, 4-(2,4-difluorophenyl)-7-{[1-(1-methylethyl)-1H-pyrazol-5-yl]methyl}-5,6,7,8-tetrahydro-1,7-naphthyridine-2-carboxamide], the IC50 was 0.0082 µM.

`COc1cc(F)ccc1-c1cc(C(N)=O)nc2c1CCN(Cc1ccnc(C3CC3)c1)C2` [Example 2-10, 7-[(2-cyclopropylpyridin-4-yl)methyl]-4-(4-fluoro-2-methoxyphenyl)-5,6,7,8-tetrahydro-1,7-naphthyridine-2-carboxamide]: the IC50 is 0.0409 µM.

For the compound `Cc1csc(-c2cc(C(N)=O)nc3c2CCN(Cc2ccnc(C(F)(F)F)c2)C3)n1` [Example 6-2, 4-(4-methyl-1,3-thiazol-2-yl)-7-{[2-(trifluoromethyl)pyridin-4-yl]methyl}-5,6,7,8-tetrahydro-1,7-naphthyridine-2-carboxamide], the IC50 turned out to be 1.15 µM.

Consider `NC(=O)c1cc(-c2ccc(Cl)cc2F)c2c(n1)CN(Cc1ncon1)CC2` [Example 9-1, 7-((1,2,4-oxadiazol-3-yl)methyl)-4-(4-chloro-2-fluorophenyl)-5,6,7,8-tetrahydro-1,7-naphthyridine-2-carboxamide], for which the IC50 was determined as 0.0277 µM.

For `NC(=O)c1cc(-c2ccc(F)cc2)c2c(n1)CN(C[C@H]1CCO[C@@H](C3CC3)C1)CC2` [Example 1-2B, 7-(((2R,4S)-2-cyclopropyltetrahydro-2H-pyran-4-yl)methyl)-4-(4-fluorophenyl)-5,6,7,8-tetrahydro-1,7-naphthyridine-2-carboxamide], the IC50 turned out to be 0.129 µM.

In the case of `NC(=O)c1cc(-c2ccc(F)cc2)c2c(n1)CN(Cc1ccccc1C(N)=O)CC2` [Example 2-2, 7-(2-carbamoylbenzyl)-4-(4-fluorophenyl)-5,6,7,8-tetrahydro-1,7-naphthyridine-2-carboxamide], the IC50 came to 0.0282 µM.

Regarding `CC(C)(C)[C@@H]1C[C@H](CN2CCc3c(-c4ccc(F)cc4)cc(C(N)=O)nc3C2)CCO1` [Example 1-3A, 7-(((2S,4R)-2-(tert-butyl)tetrahydro-2H-pyran-4-yl)methyl)-4-(4-fluorophenyl)-5,6,7,8-tetrahydro-1,7-naphthyridine-2-carboxamide], the IC50 was determined as 0.132 µM.

On to `Cc1cc(-c2cc(C(N)=O)nc3c2CCN(Cc2ccnc(OC(F)F)c2)C3)sn1` [Example 2-16, 7-{[2-(difluoromethoxy)pyridin-4-yl]methyl}-4-(3-methylisothiazol-5-yl)-5,6,7,8-tetrahydro-1,7-naphthyridine-2-carboxamide], for which the IC50 was 0.0267 µM.

For `COc1nccc(CN2CCc3c(-c4ccc(Cl)cc4F)cc(C(N)=O)nc3C2)n1` [Example 9-3, 4-(4-chloro-2-fluorophenyl)-7-[(2-methoxypyrimidin-4-yl)methyl]-5,6,7,8-tetrahydro-1,7-naphthyridine-2-carboxamide], the IC50 came out at 0.0142 µM.

Take `CC1(C)CC(CN2CCc3c(-c4ccc(Cl)cc4F)cc(C(N)=O)nc3C2)CCO1` (single isomer, unassigned) [Example 1-5B, (S) or (R)-4-(4-chloro-2-fluorophenyl)-7-((2,2-dimethyltetrahydro-2H-pyran-4-yl)methyl)-5,6,7,8-tetrahydro-1,7-naphthyridine-2-carboxamide]: the IC50 came out at 0.0075 µM.

Turning to `CC1(C)CC(CN2CCc3c(-c4ccc(F)cc4F)cc(C(N)=O)nc3C2(C)C)CCO1` (racemic) [Example 1-23A, (R) and (S)-4-(2,4-difluorophenyl)-7-((2,2-dimethyltetrahydro-2H-pyran-4-yl)methyl)-8,8-dimethyl-5,6,7,8-tetrahydro-1,7-naphthyridine-2-carboxamide], the IC50 is 0.0147 µM.

As for `NC(=O)c1cc(-c2cc(F)ccc2F)c2c(n1)CN(Cc1ccnc(C(F)(F)F)n1)CC2` [Example 11-2, 4-(2,5-difluorophenyl)-7-{[2-(trifluoromethyl)pyrimidin-4-yl]methyl}-5,6,7,8-tetrahydro-1,7-naphthyridine-2-carboxamide], the IC50 turned out to be 0.0521 µM.

Consider `CC(C)c1noc(CN2CCc3c(-c4ccc(Cl)cc4F)cc(C(N)=O)nc3C2)n1` [Example 9-6, 4-(4-chloro-2-fluorophenyl)-7-{[3-(1-methylethyl)-1,2,4-oxadiazol-5-yl]methyl}-5,6,7,8-tetrahydro-1,7-naphthyridine-2-carboxamide], for which the IC50 was 0.008 µM.

Consider `CC(C)(C)[C@H]1C[C@@H](CN2CCc3c(-c4ccc(F)cc4)cc(C(N)=O)nc3C2)CCO1` [Example 1-3B, 7-(((2R,4S)-2-(tert-butyl)tetrahydro-2H-pyran-4-yl)methyl)-4-(4-fluorophenyl)-5,6,7,8-tetrahydro-1,7-naphthyridine-2-carboxamide], for which the IC50 stood at 0.179 µM.

On to `NC(=O)c1cc(-c2ccc(F)cc2)c2c(n1)CN(C[C@H]1CCN[C@@H](C(F)(F)F)C1)CC2` [Example 1-1A, 4-(4-fluorophenyl)-7-(((2R,4S)-2-(trifluoromethyl)piperidin-4-yl)methyl)-5,6,7,8-tetrahydro-1,7-naphthyridine-2-carboxamide], for which the IC50 amounted to 0.0982 µM.
